Experimental data as given in US8236754B2, “Methods for improving the structure and function of arterioles” (The Regents of the University of California, priority 2004, dated 2012).
Entries after “also recorded” stand apart in the source; their conditions may differ. Non-standard residues stand in square brackets, D forms with d.

Assays:
[1] = system: facial artery of LDL receptor null mice; assay: Facial artery ring vasoreactivity, acetylcholine relaxation after oral treatment; assay type: in vivo; conditions: Western diet, 1 mg/mL in drinking water, six weeks
apoe null mice = conditions: oral DMPC; cited from earlier work
mouse facial artery = conditions: published studies; cited from earlier work
LDL lipid hydroperoxides = conditions: mice, oral D-4F, without changing plasma lipid levels; cited from earlier work
LDL receptor null mice = assay: T-maze continuous alternation task (T-CAT), spatial memory; assay type: in vivo
Method: T-maze continuous alternation task (T-CAT) testing took place daily between 9 A.M. and 4 P.M. and was performed by one investigator unaware of the treatment groups. The mice were delivered to the testing room two hours prior to behavioral studies to allow familiarization with the extra-maze visual cues of the room. The T-maze apparatus used in our studies is identical to the one described by Gerlai et al. (Gerlai (1998) Behavioural Brain Research, 95: 91-101) and was made of transparent acrylic walls with a black acrylic bottom. The dimensions of start and goal arms were: length 75 cm, width 12 cm and height 20 cm. The maze was equipped with three removable guillotine doors that could be operated by manual remote control. The testing room was illuminated by ceiling and floor lights and a fan provided a constant background noise. The T-maze was separated from the investigator by a black curtain and the movement of the mice in the maze was observed on a TV monitor and videotaped. After each individual mouse the T-maze was carefully cleaned with Windex spray and dried with paper towels. The T-maze continuous alternation task (T-CAT) limits the handling of mice and permits their exploratory behavior to be carried out undisturbed. The procedure used in this study is identical to that described by Gerlai et al. (Id.) and consisted of one forced and 14 free choice trials. Consecutive choices made by the mice were measured and the alternation rate during the 14 free choice trials was calculated (0%-no alternation, 100%-alternation at each trial, 50%-random choice). The time (in seconds) needed to complete the 15 trials was recorded and analyzed. The T-CAT testing was continuously registered by a video tracking system (SD Instruments Inc., San Diego, Calif.) and stored on a computer. Statistics were performed using StatView software (SAS Institute, Cary, N.C.)

[2] = system: brain arteriolar smooth muscle α-actin; assay: Brain arteriolar smooth muscle α-actin immunostaining, wall to lumen ratio; assay type: in vivo; conditions: LDL receptor null mice, Western diet 6 weeks, 300 μg/mL in drinking water; D-4F vs scrambled D-4F
Method: (§1) Female wild-type and LDL receptor null C57BL/6 mice were from Jackson Laboratories (Bar Harbour, Me.). The mice were maintained on a chow diet (Ralston Purina) prior to administration of a Western diet (Teklad/Harlan, Madison Wis., diet No. 88137; 42% fat, 0.15% cholesterol, w/w). For studies of brain arterioles the mice were anesthetized with intramuscular ketamine (100 mg/kg) and acepromazine (2.5 mg/kg) and the heart was perfused via the left ventricle with 25 mL phosphate buffered saline (PBS) containing heparin (10 U/mL) followed by 100 mL of 4% paraformaldehyde (PFA) in PBS at pH 7.4 as described by Fernagut et al. (Fernagut et al. (2002) Neuroscience, 114: 1005-1017; Fernagut et al. (2004) Exp Neurol., 185: 47-62). […]
(§2) Morphometry was performed to determine vascular wall thickness for all arterioles that were distended and perpendicularly cross-sectioned. […] A minimum of 10 arteries from each diameter group was examined in the cortical area and the deep white matter regions from each brain, and the wall thickness and wall to lumen ratios determined. The ratio of immunoreactive media thickness to the internal diameter of each vessel was assessed in sections immunostained for smooth muscle α-actin. […] Inter-observer variation was determined by having the three investigators measure the same 20 arterioles for wall thickness and lumen diameter and calculate the wall to lumen ratio. […]

[3] = Plasma lipoprotein and lipid levels; assay type: in vivo, mice
Method: Plasma lipoprotein and lipid levels were determined as described previously (Navab et al. (2004) Circulation, 109:r120-r125; Navab et al. (2005) Arterioscler Thromb Vasc Biol., 25: 1-7).

[4] = system: brain arterioles of LDL receptor null mice; assay: Brain arteriolar wall thickness and lumen diameter by morphometry on H&E sections; assay type: in vivo; conditions: Western diet 6 weeks, 300 μg/mL in drinking water, D-4F vs scrambled D-4F
Method: as §1, with “47-62). Brains were quickly removed and stored for 24 hrs in 4% PFA at 4° C. and then transferred to 10% sucrose in PBS (pH 7.4) and left until they sank to the bottom of the solution. The right half of the brains were embedded in OCT (Tissue-Tek; Miles Laboratories Ltd, Elkhart Ind.) and frozen in isopentane at −40° C. and stored at −80° C. until sectioned in a cryostat at −20° C. The frozen brain was cut into 8 μm sections coronally to include the underlying white matter and stained with hematoxylin-eosin (H&E) and for smooth muscle α-actin (Serotec, Raleigh, N.C.).” for “47-62).”
as §2

[5] = LDL receptor null mice, Western diet 6 weeks, 300 μg/mL in drinking water, Mean±SEM

Compound | acetylcholine vasorelaxation of facial artery rings [1] | HDL-cholesterol (apoe null mice) | atherosclerosis (apoe null mice) | plasma apoA-I levels (apoe null mice) | vasoreactivity of facial arteries (mouse facial artery) | LDL lipid hydroperoxides (LDL lipid hydroperoxides) | performance in the T-maze / T-CAT (spatial memory) (LDL receptor null mice; LDL receptor null mice, Western diet, oral treatment) | time to complete the 15 trials (LDL receptor null mice; LDL receptor null mice, Western diet, oral treatment, difference not statistically significant) | performance in the T-maze / T-CAT (spatial memory) (LDL receptor null mice; LDL receptor null mice, Western diet, oral treatment, listed as D4F) | number of spontaneous alternations in the T-maze test (LDL receptor null mice; LDLR−/− mice, Western diet six weeks, 300 μg/mL in drinking water) | brain arteriolar wall smooth muscle α-actin content [2] | difference in plasma total cholesterol, LDL-cholesterol, HDL-cholesterol or triglycerides ([3]; D-4F compared to scrambled D-4F) | HDL cholesterol concentration [3, 5] | LDL cholesterol concentration [3, 5] | Triglycerides [3, 5] | plasma total cholesterol concentration [3, 5] | brain arteriolar wall thickness [4] | lumen diameters of the brain arterioles [4] | ratio of wall to lumen diameter [4]
CCCCCCCCCCCCCC(=O)OCC(COP(=O)([O-])OCC[N+](C)(C)C)OC(=O)CCCCCCCCCCCCC (racemic) [DMPC, 1,2-ditetradecanoyl-rac-glycerol-3-phosphocholine] | significant improvement; also recorded: improves | increase | prevention and regression | increase |  |  |  |  |  |  |  |  |  |  |  |  |  |  | 
Ac-D-W-F-K-A-F-Y-D-K-V-A-E-K-F-K-E-A-F-NH2 [4F] (Ac-DWFKAFYDKVAEKFKEAF-NH2) [Peptide 4F] |  |  |  |  | dramatically improved |  |  |  |  |  |  |  |  |  |  |  |  |  | 
Ac-D-W-F-K-A-F-Y-D-K-V-A-E-K-F-K-E-A-F-NH2 [D-4F] (Ac-[dD][dW][dF][dK][dA][dF][dY][dD][dK][dV][dA][dE][dK][dF][dK][dE][dA][dF]-NH2) [Peptide D-4F, apoA-I mimetic peptide] |  |  |  |  | improved | decrease | significantly improved | 548 ± 37 s | improvement | significantly improved | significantly reduced | no significant difference | 86 ± 6 mg/dL | 924 ± 76 mg/dL | 330 ± 25 mg/dL | 1,076±75 mg/dL | decreased; also recorded: reduced | no difference | significantly less
